Key:
[1] = tested on: MYC expression; test: Myc mRNA assay in MV-4-11 cells; type: cell-based; conditions: for Maximum Inhibition (%) (mean) of MYC expression: 4 hours, QuantiGene 2.0; for IC50: Homo sapiens, MV4-11, 4 hours, QuantiGene 2.0, read-out: Inhibition of MYC expression Average IC50
Description: Pharmacologic inhibition of MYC is achievable through targeting BET bromodomains through small molecule binder or degrader mechanisms.
Test compounds diluted in DMSO were transferred to the cell plates, keeping final DMSO concentration consistent at 0.1%, and incubated for 4 hours at 37° C. […] Luminescence was read using an EnVision plate reader (PerkinElmer) and IC50s generated in Genedata Screener using a 4-parameter non-linear regression fit.

[2] = target: T1, BRD4 (Homo sapiens (Human), UniProt O60885); test: BRD4 degradation assay in EoL-1 cells; type: cell-based; conditions: for DC50: 4 hours, immunofluorescence, read-out: Degradation of BRD4 Average EC50; for Dmax: EOL1, 4 hours, complete loss = −100%, read-out: Sinf (maximum degradation, percent change in protein level)
Description: 2 μL of each sample from the serial dilution was transferred to 98 μL of assay media as an intermediate dilution. 5 μL of each well of the intermediate dilution was added to 45 μL of cell plate. Columns 1, 2, 23 and 24 were treated with only 0.2% final concentration of DMSO for data normalization as “neutral controls”. After compound treatment, cell plates were stored in a 37° C. incubator for 4 hours.
The cell plate was incubated at room temperature for 20 minutes. Well contents were aspirated and washed with 100 μL/well PBS 3 times. 50 μL/well of PBS (pH7.5) containing 0.5% w/v bovine serum albumen, 0.5% w/v Triton X-100 (Block/Permeabilzation Buffer) was added to each well. Samples were incubated for 20 minutes. Well contents were aspirated and washed 3 times with 100 μL/well of PBS. PBS was aspirated from the well and 50 μL per well of EoL-1 Block Buffer (PBS containing 10% Normal Goat Serum (Abcam #ab7481)) was added to each well. Plates were incubated at room temperature for 30 minutes. Block buffer was decanted from the wells.
25 μL per well of BRD4 antibody diluted in buffer was added and incubated overnight at 4° C. On day-2 samples were washed 3 times with 100 μL/well of PBS. […] Samples were incubated for 2 hours at room temperature. Samples were washed 3 times with 100 μL PBS.
(§1) Quantitative fluorescence imaging of BRD4 was carried out using an Opera Phenix High-Content Screening System. […] Hoechst channel was used to identify nuclear region. […] Data analysis was carried out using Genedata Screener, with DMSO and no primary antibody control treated samples being used to define the 0% and 100% changes in BRD4. The dose-response log(inhibitor) vs. response was used to define the inflexion point of curve (IC50) and the plateau of the maximal effect. The Sinf value reports degradation as percent change in protein level, so complete loss of the protein target is −100%. Sinf is the maximum degradation achieved, obtained by determining the bottom of a dose-response (where the S-shaped curve levels out).

[3] = target: BRD4_BD2 bromodomain (Homo sapiens (Human), UniProt O60885); test: BRD4 BD2 biochemical binding assay (TR-FRET); conditions: displacement of biotinylated ligand Compound C
Description: (§2) The following assay was used to measure the IC50 for the test compounds ability to bind to the BRD4_BD1 and BRD4_BD2 bromodomains.
(§3) DMSO was backfilled to a final volume of 30 nL as required. […] 1× Assay Buffer was dispensed (5 μL per well) into Minimum Signal control wells. 5 μL of Solution A-3× was dispensed into test wells and Maximum Signal control wells (containing DMSO instead of test compound). Samples were incubated 10 minutes at room temperature. 5 μL of Solution B-3x was dispensed into all wells. Samples were incubated incubate for 10 minutes at room temperature. 5 μL of Solution C-3x was dispensed into all wells. Samples were incubated 40 minutes at room temperature. Plates were read using an Envision (Perkin Elmer) with the following settings: Detection—LANCE Dual Laser 50/200. […] Percentage inhibition was calculated relative to the Minimum Signal control and Maximum Signal control wells. IC50 values were derived by four parameter curve fitting using the Robust method.

[4] = target: BRD4_BD1 bromodomain (Homo sapiens (Human), UniProt O60885); test: BRD4 BD1 biochemical binding assay (TR-FRET); conditions: displacement of biotinylated ligand Compound C
Description: as §2, §3

[5] = target: T1, BRD4; test: BRD4 degradation assay in PC3-Steap1 cells; type: cell-based; conditions: 4 hours; for DC50: immunofluorescence, read-out: Degradation of BRD4 Average EC50; for Dmax: complete loss = −100%, read-out: Sinf (maximum degradation, percent change in protein level)
Description: 2 μL of each sample from the serial dilution was transferred to 98 μL of assay media as an intermediate dilution. 5 μL of intermediate dilution was added to 45 μL of cell plate. Columns 1, 2, 23 and 24 were treated with only 0.2% w/v final concentration of DMSO for data normalization as “neutral controls”. After compound treatment, cell plates were stored in a 37° C. incubator for 4 hours.
Cell plate was incubated at room temperature for 20 minutes. Well contents were aspirated and washed with 100 μL/well PBS 3 times. 50 μL/well of PBS containing 0.5% w/v bovine serum albumen, 0.5% w/v Triton X-100 (Antibody Dilution Buffer) was added to each well. Samples were incubated for 30 minutes. Well contents were aspirated and washed 3 times with 100 μL/well of PBS. PBS was aspirated from the wells.
25 μL per well of BRD4 antibody diluted in buffer was added and incubated overnight at 4° C. On day-3 samples were washed 3 times with 100 μL/well of PBS. […] Samples were incubated for 2 hours at room temperature. Samples were washed 3 times with 100 μL PBS.
as §1, with “The […]” for “The Sinf”

| SMILES | Maximum Inhibition (%) (mean) of MYC expression [1] | IC50 [1] [nM] | DC50 [2] [nM] | IC50 [3] [nM] | IC50 [4] [nM] | DC50 [5] [nM] | Dmax [5] [%] | Dmax [2] [%] |
| --- | --- | --- | --- | --- | --- | --- | --- | --- |
| Cc1sc2c(c1C)C(c1ccc(Cl)cc1)=N[C@@H](CC(=O)OC(C)(C)C)c1nnc(C)n1-2 [Compound A, tert-butyl (S)-2-(4-(4-chlorophenyl)-2,3,9-trimethyl-6H-thieno[3,2-f][1,2,4]triazolo[4,3-a][1,4]diazepin-6-yl)acetate, reference compound] | 76.3 | 83.4 |  |  |  |  |  |  |
| CC(=O)NCC#Cc1ccc(C2=N[C@@H](CC(=O)OC(C)(C)C)c3nnc(C)n3-c3sc(C)c(C)c32)cc1 [Compound 10a, tert-butyl (S)-2-(4-(4-(3-acetamidoprop-1-yn-1-yl)phenyl)-2,3,9-trimethyl-6H-thieno[3,2-f][1,2,4]triazolo[4,3-a][1,4]diazepin-6-yl)acetate] | 79.3 | 7.1 | > 20000 | 10.7 | 6.6 | > 20000 |  |  |
| Cc1sc2c(c1C)C(c1ccc(C#CC(C)N)cc1)=N[C@@H](CC(=O)OC(C)(C)C)c1nnc(C)n1-2 (stereo partly drawn) [Compound 11a, tert-butyl 2-((6S)-4-(4-(3-aminobut-1-yn-1-yl)phenyl)-2,3,9-trimethyl-6H-thieno[3,2-f][1,2,4]triazolo[4,3-a][1,4]diazepin-6-yl)acetate] | 72.5 | 20.7 |  | 10.6 | 14.1 | > 20000 | -43.3 |  |
| Cc1sc2c(c1C)C(c1ccc(C#CCCN)cc1)=N[C@@H](CC(=O)OC(C)(C)C)c1nnc(C)n1-2 [Compound 4a, tert-butyl (S)-2-(4-(4-(4-aminobut-1-yn-1-yl)phenyl)-2,3,9-trimethyl-6H-thieno[3,2-f][1,2,4]triazolo[4,3-a][1,4]diazepin-6-yl)acetate] | 79.4 | 19.8 |  | 17.7 | 13 | 3.4 | -54.7 |  |
| COC(=O)c1cc2c(cc1CS(C)(=O)=O)-c1cn(C)c(=O)c3[nH]cc(c13)CN2c1ncc(C#CCN)cc1F [Compound 15, methyl 4-(5-(3-aminoprop-1-yn-1-yl)-3-fluoropyridin-2-yl)-10-methyl-7-((methylsulfonyl)methyl)-11-oxo-3,4,10,11-tetrahydro-1H-1,4,10-triazadibenzo[cd,f]azulene-6-carboxylate] | 75.7 | 7.2 | > 20000 |  |  | > 20000 |  |  |
| CNCC#Cc1ccc(C2=N[C@@H](CC(=O)OC(C)(C)C)c3nnc(C)n3-c3sc(C)c(C)c32)cc1 [Compound 2a, tert-butyl (S)-2-(2,3,9-trimethyl-4-(4-(3-(methylamino)prop-1-yn-1-yl)phenyl)-6H-thieno[3,2-f][1,2,4]triazolo[4,3-a][1,4]diazepin-6-yl)acetate] | 77.9 | 11.1 | > 20000 | 17.1 | 14.4 | > 20000 | -21.8 |  |
| Cc1sc2c(c1C)C(c1ccc(C#CCN)cc1)=N[C@@H](CC(=O)OC(C)(C)C)c1nnc(C)n1-2 [Compound 1a, tert-butyl (S)-2-(4-(4-(3-aminoprop-1-yn-1-yl)phenyl)-2,3,9-trimethyl-6H-thieno[3,2-f][1,2,4]triazolo[4,3-a][1,4]diazepin-6-yl)acetate] | 89.1 | 2.9 | 1.3 | 12.3 | 15.5 | 1.4 | -84.6 | -83.8 |
| Cc1sc2c(c1C)C(c1ccc(CCCN)cc1)=N[C@@H](CC(=O)OC(C)(C)C)c1nnc(C)n1-2 [Compound 9a, tert-butyl (S)-2-(4-(4-(3-aminopropyl)phenyl)-2,3,9-trimethyl-6H-thieno[3,2-f][1,2,4]triazolo[4,3-a][1,4]diazepin-6-yl)acetate] | 78.1 | 27.7 |  |  |  |  | -57.6 |  |
| Cc1sc2c(c1C)C(c1ccc(C#CCNO)cc1)=N[C@@H](CC(=O)OC(C)(C)C)c1nnc(C)n1-2 [Compound 8a, tert-butyl (S)-2-(4-(4-(3-(hydroxyamino)prop-1-yn-1-yl)phenyl)-2,3,9-trimethyl-6H-thieno[3,2-f][1,2,4]triazolo[4,3-a][1,4]diazepin-6-yl)acetate] | 95.1 | 7.2 |  |  |  |  | -92.6 | -92.2 |
| Cc1sc2c(c1C)C(c1ccc(/C=C/CN)cc1)=N[C@@H](CC(=O)OC(C)(C)C)c1nnc(C)n1-2 [Compound 6a, tert-butyl (S,E)-2-(4-(4-(3-aminoprop-1-en-1-yl)phenyl)-2,3,9-trimethyl-6H-thieno[3,2-f][1,2,4]triazolo[4,3-a][1,4]diazepin-6-yl)acetate] | 88.4 | 2 |  |  |  |  | -73.1 | -77.9 |
| Cc1sc2c(c1C)C(c1ccc(C#CCNC(=N)N)cc1)=N[C@@H](CC(=O)OC(C)(C)C)c1nnc(C)n1-2 [Compound 5a, tert-butyl (S)-2-(4-(4-(3-guanidinoprop-1-yn-1-yl)phenyl)-2,3,9-trimethyl-6H-thieno[3,2-f][1,2,4]triazolo[4,3-a][1,4]diazepin-6-yl)acetate] | 87.6 | 124 |  | 8.5 | 7.2 | 101 | -86 |  |
| Cc1sc2c(c1C)C(c1ccc(C#CCO)cc1)=N[C@@H](CC(=O)OC(C)(C)C)c1nnc(C)n1-2 [Compound 7a, tert-butyl (S)-2-(4-(4-(3-hydroxyprop-1-yn-1-yl)phenyl)-2,3,9-trimethyl-6H-thieno[3,2-f][1,2,4]triazolo[4,3-a][1,4]diazepin-6-yl)acetate] | 72.9 | 25.7 |  | 10.3 | 17.8 | > 20000 |  |  |
| Cc1sc2c(c1C)C(c1ccc(C#CC(C)(C)N)cc1)=N[C@@H](CC(=O)OC(C)(C)C)c1nnc(C)n1-2 [Compound 12a, tert-butyl (S)-2-(4-(4-(3-amino-3-methylbut-1-yn-1-yl)phenyl)-2,3,9-trimethyl-6H-thieno[3,2-f][1,2,4]triazolo[4,3-a][1,4]diazepin-6-yl)acetate] | 73.3 | 12.6 |  |  |  |  |  |  |

— patent US20250084096A1, “TERT-BUTYL (S)-2-(4-(PHENYL)-6H-THIENO[3, 2-F][1, 2, 4]TRIAZOLO[4, 3-A] [1,4]DIAZEPIN-6-YL) ACETATE DERIVATIVES AND RELATED COMPOUNDS AS BROMODOMAIN BRD4 INHIBITORS FOR TREATING CANCER” (Genentech, Inc., priority 2018, published 2025)
